Source: PubChem BioAssay (NCI)
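Interpolation was linear, between the two tested concentrations surrounding the appropriate level; five concentrations were tested over 48 hours in 96-well plates. At the GI50, growth is halved. TGI is the concentration that stops growth completely.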

What was measured:
Experiment in all cases: inhibition of tumour cell growth, NCI panel, 48 h
UO-31 renal = test system: UO-31 renal
M14 melanoma = test system: M14 melanoma
SK-OV-3 ovarian = test system: SK-OV-3 ovarian
LOX IMVI melanoma = test system: LOX IMVI melanoma
MALME-3M melanoma = test system: MALME-3M melanoma
COLO 205 colon = test system: COLO 205 colon
UACC-257 melanoma = test system: UACC-257 melanoma
OVCAR-8 ovarian = test system: OVCAR-8 ovarian
HL-60(TB) leukemia = test system: HL-60(TB) leukemia
A498 renal = test system: A498 renal

Structure (SMILES) | TGI (UO-31 renal) | TGI (M14 melanoma) | TGI (SK-OV-3 ovarian) | TGI (LOX IMVI melanoma) | TGI (MALME-3M melanoma) | TGI (COLO 205 colon) | TGI (UACC-257 melanoma) | TGI (OVCAR-8 ovarian) | TGI (HL-60(TB) leukemia) | TGI (A498 renal) | GI50 (UO-31 renal) | GI50 (HL-60(TB) leukemia) | GI50 (SK-OV-3 ovarian) | GI50 (A498 renal) | GI50 (LOX IMVI melanoma) | GI50 (MALME-3M melanoma) | GI50 (COLO 205 colon) | GI50 (UACC-257 melanoma) | GI50 (OVCAR-8 ovarian)
O=C1C(=Cc2ccccc2[N+](=O)[O-])N=C(c2ccccc2)N1n1c(-c2ccccc2)nc2ccccc2c1=O | > 100 µM | > 100 µM | > 100 µM | 68.5 µM | 91.7 µM | > 100 µM | 90.7 µM | 78.7 µM |  |  |  |  |  |  |  |  |  |  | 
COc1ccc(NS(=O)c2cccc(C)c2)cc1 (centres undefined) | > 100 µM | > 100 µM |  | > 100 µM | > 100 µM | > 100 µM | > 100 µM | > 100 µM | > 100 µM |  |  |  |  |  |  |  |  |  | 
COc1ccc(C2=NNC(=O)c3ccccc3N2c2nc(-c3cccs3)nc3ccc(Br)cc23)cc1 | > 100 µM | > 100 µM | > 100 µM | > 100 µM | 75.9 µM | > 100 µM | > 100 µM | > 100 µM | > 100 µM | > 100 µM |  |  |  |  |  |  |  |  | 
C=C1C(=O)O[C@H]2C3C(=C(C)CC[C@@H]12)C(=O)[C@@H]1OC31C (some centres undefined) | 11.1 µM | 3.19 µM | 29.4 µM | 5.79 µM | 4.66 µM | 2.66 µM | 5.98 µM | 5.42 µM | 0.469 µM | 23.7 µM |  |  |  |  |  |  |  |  | 
O=S(=O)(/N=C1/SC(=Nc2ccccc2)N(c2ccccc2)/C1=N/S(=O)(=O)c1ccccc1)c1ccccc1 | 39.9 µM | 62.8 µM |  |  | 68.6 µM | 64.1 µM | 43.4 µM | 62.6 µM | 45.1 µM | 37.6 µM |  |  |  |  |  |  |  |  | 
CC1(C)N=C(N)N=C(N)N1c1ccc(OCCCOc2ccccc2)c(Cl)c1 | > 23.8 µM |  | 35.1 µM | 13.7 µM | 14.5 µM | 15.1 µM | 15.1 µM | 14.5 µM |  | 30.2 µM |  |  |  |  |  |  |  |  | 
Cc1ccc2c(=O)c(C(=O)N(CCO)CCO)c[nH]c2n1 | > 100 µM | > 100 µM |  | > 100 µM | > 100 µM | > 100 µM | > 100 µM | > 100 µM | > 100 µM | > 100 µM |  |  |  |  |  |  |  |  | 
CN(C)C=Nc1nncc2n[nH]nc12 | > 100 µM | > 100 µM |  |  |  | > 100 µM | > 100 µM | > 100 µM | > 100 µM | > 100 µM |  |  |  |  |  |  |  |  | 
COC(=O)C1=C(C)NC2(C)OC(C)(O)C(C(C)=O)C12C(C)=O (centres undefined) |  | > 100 µM | 85.8 µM | > 100 µM | 50.9 µM | > 100 µM | > 100 µM | > 100 µM | > 100 µM | > 100 µM |  |  |  |  |  |  |  |  | 
COc1cc(S(=O)(=O)N/N=C/c2cc(Br)c(O)c(OC)c2)c(OC)cc1NC(C)=O | > 100 µM | > 100 µM | > 100 µM | > 100 µM |  | 51.3 µM | > 100 µM | > 100 µM | 58 µM | > 100 µM |  |  |  |  |  |  |  |  | 
CC(C)c1nccn1Cc1ccc(Cl)cc1Cl | > 100 µM | > 100 µM | > 100 µM | > 100 µM | > 100 µM | > 100 µM | 95.9 µM | > 100 µM |  | > 100 µM |  |  |  |  |  |  |  |  | 
CCOC(=O)C[n+]1ccc2c([nH]c3cc(OC)ccc32)c1C | > 100 µM |  | > 100 µM | > 100 µM | > 100 µM | > 100 µM | > 100 µM | > 100 µM | > 100 µM | > 100 µM |  |  |  |  |  |  |  |  | 
NC1CCCCC1N.O=S(=O)([O-])CCCN1CCN(CCO)CC1.O=S(=O)([O-])CCCN1CCN(CCO)CC1.[Pt+4] | > 100 µM |  | > 100 µM | > 100 µM | 28.3 µM | 19.6 µM | 24 µM | > 100 µM | 11.6 µM | > 100 µM | 13.5 µM | 0.132 µM | > 87.2 µM | 6.05 µM | 5.97 µM | 3.08 µM | 1.82 µM | 5.77 µM | 2.78 µM
CCCCCCc1cn([C@H]2C[C@H](O)[C@@H](CO)O2)c(=O)[nH]c1=O | > 100 µM |  |  | > 100 µM | > 100 µM |  | > 100 µM | > 100 µM | > 100 µM | > 100 µM |  |  |  |  |  |  |  |  | 
CSC1NNC2(C(=O)N1)c1ccccc1-c1ccccc12 (centres undefined) | > 10 µM | > 10 µM | > 10 µM | > 10 µM | > 10 µM | > 10 µM | > 10 µM | > 10 µM | > 10 µM |  |  |  |  |  |  |  |  |  | 
Cc1ccc([N+](=O)[O-])cc1NC(=O)C(=O)C1CCC2=C(Sc3ccccc3N2)C1=O (centres undefined) | > 100 µM | > 100 µM | > 100 µM | > 100 µM |  | > 100 µM | > 100 µM | > 100 µM | > 100 µM |  |  |  |  |  |  |  |  |  | 
COc1ccc(NC(=S)NNC(=O)c2cc(-c3ccccc3)nc3ccccc23)cc1 | 26.3 µM | 31.9 µM | 15.9 µM |  | 54 µM | 97.4 µM | 46.9 µM | 38.9 µM |  | 35.1 µM |  |  |  |  |  |  |  |  | 
COc1cccc2c1[C@]1(O)C(O)CCCC21 (some centres undefined) | > 100 µM | > 100 µM | > 100 µM | > 100 µM | > 100 µM | > 100 µM | > 100 µM | > 100 µM |  | > 100 µM |  |  |  |  |  |  |  |  | 
O=C(C=P(c1ccccc1)(c1ccccc1)c1ccccc1)c1ccc(-c2ccc(F)cc2F)cc1 | 4.08 µM | 5.76 µM | 8.63 µM |  | 7.17 µM | 3.14 µM | 8.57 µM |  | 5.13 µM | 7.41 µM |  |  |  |  |  |  |  |  | 
CC1(C)O[C@@H](CP(c2cccc3ccccc23)c2cccc3ccccc23)[C@H](CP(c2cccc3ccccc23)c2cccc3ccccc23)O1 | > 100 µM | > 100 µM | > 100 µM | > 100 µM |  | > 100 µM | > 100 µM | > 100 µM |  |  |  |  |  |  |  |  |  |  | 
O=C1OC2C=CC1C1(CCOC1=O)C2 (centres undefined) | > 100 µM | > 100 µM |  | > 100 µM | > 100 µM | > 100 µM | > 100 µM | > 100 µM | > 100 µM | > 100 µM |  |  |  |  |  |  |  |  | 
Oc1ccc2ccccc2c1OCc1nnc(CCCCCCCCc2nnc(COc3c(O)ccc4ccccc34)o2)o1 | > 100 µM | > 100 µM | > 100 µM |  | > 100 µM | > 100 µM | > 100 µM |  |  | > 100 µM |  |  |  |  |  |  |  |  | 
